# Assay results from patent publication US20030206968A1, “Fungicidal mixtures” (priority 1999, published 2003).
# Like-named read-outs stand apart in the source and are kept apart here.
# How the values were obtained:
# Type in all cases: in vivo
# [1] = test system: Blumeria graminis; assay: Greenhouse, Blumeria graminis on barley, 2 days curative
# Procedure: (§1) The trials are carried out under greenhouse (Examples 1 to 32) or field conditions (Examples 33 to 40) in residual or curative applications. The fungicides are applied in single treatments, or in a combination comprising an azolopyrimidine of formula I and a compound selected from the classes (A), (B) and (C) as defined above. The compounds are applied in form of an aqueous spray mix obtained from a concentrated formulation or the technical material.
# (§2) 1. Seed is planted in 6 cm diameter plastic pots and maintained in the greenhouse.
# (§3) 2. When the primary leaf is fully expanded in the case of cereals or several leaves are present in the case of dicots, formulated test compounds are sprayed with a three nozzle overhead fungicide sprayer to near run-off. Alternatively, a single nozzle overhead track sprayer is used for application of the compounds to cereals at a rate of 200 l/ha. Plants are then allowed to air-dry.
# (§4) 3. Inoculation precedes treatment in the case of curative evaluations and follows treatment in case of residual evaluations. For inoculation of powdery mildew disease, plants are set up on greenhouse benches with bottom watering mats and inoculated by dusting them with conidia from infected plants. Between inoculation and treatment for curative evaluations and between treatment and inoculation for residual evaluations, plants are maintained in the greenhouse with bottom watering.
# (§5) 4. Disease on the foliage as percent leaf area with disease symptoms/signs is evaluated about 7 days after inoculation. In the case of wheat, the tips and bases of the leaves are excluded from the evaluation. [formula]
# (§6) 1. Technical compounds are formulated in a solvent/surfactant system consisting of 5% acetone and 0.05% Tween 20 in deionized water. Compounds are dissolved in acetone prior to addition of the water; the Tween 20 can be added through either the acetone or the water. Dilutions are made using the solvent/surfactant system. Formulated compounds are prepared using deionized water.
# (§7) 2. Two kinds of controls are included: Plants treated with the solvent/surfactant solution and inoculated (Solvent Blank). Untreated plants which are inoculated (Inoculated Control).
# (§8) Assessments of the diseases took place at the indicated day after the application of the compounds. Per cent infected leaf area infected was evaluated. The efficacy of the compounds/compounds mixtures to control the diseases was calculated by using the formula given above under item 4: […]
# (§9) Synergy was calculated using the % disease control values of specific treatments for the two COLBY formula given hereinabove
# Fungicidal efficacy of the mixture of (S)-Azolopyrimidine C in admixture with Fenhexamid (2 days curative) against Blumeria graminis on barley. The tank mixes were obtained from technical material of (S)-Azolopyrimidine C and Fenhexamid.
# Fungicidal efficacy of the mixture of (S)-Azolopyrimidine C in admixture with Azoxystrobin or Trifloxystrobin (2 days curative) against Blumeria graminis on barley. The tank mixes were obtained from technical material of (S)-Azolopyrimidine C and Azoxystrobin or Trifloxystrobin.
# [2] = test system: Blumeria graminis; assay: Greenhouse, Blumeria graminis on wheat, 2 days curative; settings: Example 27
# Procedure: as §1, §2, §3, §4, §5, §6, §7, §8, §9
# Fungicidal efficacy of the mixture of (S)-Azolopyrimidine C in admixture with Azoxystrobin or Trifloxystrobin (2 days curative) against Blumeria graminis on wheat. The tank mixes were obtained from technical material of (S)-Azolopyrimidine C and Azoxystrobin or Trifloxystrobin.
# [3] = test system: Puccinia recondita; assay: Greenhouse, Puccinia recondita on wheat, 1 day curative, plants sprayed twice, once with each compound; settings: Example 12
# Procedure: as §1, §2, §3, §4
# (§10) For inoculation of non-powdery mildew diseases, an aqueous spore suspension of the pathogen is applied to the plant and the plants are kept 1-2 days in a moist infection chamber before being returned to the greenhouse where they are maintained by bottom watering.
# as §5, §6, §7, §8, §9
# Fungicidal efficacy of the mixture of Azolopyrimidine C+kresoxim methyl (1 day curative) against Puccinia recondita on wheat Plants sprayed twice, once with each compound. The tank mixes were obtained from a SC formulation containing 100 g Azolopyrimidine C per liter and a WG containing 500 g kresoxim methyl per kg.
# [4] = test system: Blumeria graminis; assay: Greenhouse, Blumeria graminis on barley, 4 days residual; settings: Example 32
# Procedure: as §1, §2, §3, §4, §5, §6, §7, §8, §9
# Fungicidal efficacy of the mixture of (S)-Azolopyrimidine C in admixture with Azoxystrobin (4 days residual) against Blumeria graminis on barley. The tank mixes were obtained from technical material of (S)-Azolopyrimidine C and Azoxystrobin.
# [5] = test system: Puccinia recondita; assay: Greenhouse, Puccinia recondita on wheat, 1 day residual; settings: Puccinia recondita, read-out: Observed Efficacy; for pest or weed control at 0.06 ppm: dose rate 0.06 ppm; for pest or weed control at 0.25 ppm: dose rate 0.25 ppm; for pest or weed control at 1 ppm: dose rate 1 ppm; for pest or weed control at 4 ppm: dose rate 4 ppm
# Description: as §1, with “The” for “The trials are carried out under greenhouse (Examples 1 to 32) or field conditions (Examples 33 to 40) in residual or curative applications. The”
# as §2, §3, §4, §10, §5, §6, §7, §8, §9
# Fungicidal efficacy of the mixture of Azolopyrimidine C+metconazole (1 day residual) against Puccinia recondita on wheat The tank mix was obtained from a SC formulation containing 100 g Azolopyrimidine C per liter and an EC containing 100 g metconazole per liter. […]
# Fungicidal efficacy of the mixture of Azolopyrimidine C+fluazinam (1 day residual) against Puccinia recondita on wheat The tank mix was obtained from technical material of Azolopyrimidine C and a SC formulation containing 500 g fluazinam per liter. […]
compound,measurement,setting,value
"5-chloro-6-(2,4,6-trifluorophenyl)-7-(1,1,1-trifluoroprop-2-ylamino)-[1,2,4]triazolo[1,5-a]pyrimidine [(S)-Azolopyrimidine C]",Observed Efficacy,"[1]; Example 26, dose rate 0.74 ppm",0%
same,Observed Efficacy,"[1]; Example 26, dose rate 2.2 ppm",8%
same,Observed Efficacy,"[1]; Example 26, dose rate 6.7 ppm",29%
same,Observed Efficacy,"[1]; Example 26, dose rate 20 ppm",37%
same,Observed Efficacy,"[1]; Example 26, dose rate 60 ppm",60%
same,Observed Efficacy,"[1]; Example 26, dose rate 180 ppm",86%
same,Observed Efficacy,"[1]; Example 29, dose rate 1.6 ppm",0%
same,Observed Efficacy,"[1]; Example 29, dose rate 3.1 ppm",1%
same,Observed Efficacy,"[1]; Example 29, dose rate 6.3 ppm",15%
same,Observed Efficacy,"[1]; Example 29, dose rate 12.5 ppm",31%
same,Observed Efficacy,"[1]; Example 29, dose rate 25 ppm",54%
same,Observed Efficacy,"[1]; Example 29, dose rate 50 ppm",73%
same,Observed Efficacy,[2]; dose rate 1.6 ppm,0%
same,Observed Efficacy,[2]; dose rate 3.1 ppm,0%
same,Observed Efficacy,[2]; dose rate 6.3 ppm,10%
same,Observed Efficacy,[2]; dose rate 12.5 ppm,40%
same,Observed Efficacy,[2]; dose rate 25 ppm,61%
same,Observed Efficacy,[2]; dose rate 50 ppm,81%
same,Observed Efficacy,[3]; dose rate 25 g/ha,25%
same,Observed Efficacy,[3]; dose rate 50 g/ha,66%
same,Observed Efficacy,[3]; dose rate 100 g/ha,79%
same,Observed Efficacy,[3]; dose rate 200 g/ha,97%
same,Observed Efficacy,[3]; dose rate 400 g/ha,99%
same,Observed Efficacy,[4]; dose rate 1.6 ppm,0%
same,Observed Efficacy,[4]; dose rate 3.1 ppm,3%
same,Observed Efficacy,[4]; dose rate 6.3 ppm,8%
same,Observed Efficacy,[4]; dose rate 12.5 ppm,17%
same,Observed Efficacy,[4]; dose rate 25 ppm,22%
same,Observed Efficacy,[4]; dose rate 50 ppm,28%
"CC(Nc1c(-c2c(F)cc(F)cc2F)c(Cl)nc2ncnn12)C(F)(F)F (stereo not drawn) [Azolopyrimidine C, 5-chloro-6-(2,4,6-trifluorophenyl)-7-(1,1,1-trifluoroprop-2-ylamino)-[1,2,4]triazolo[1,5-a]pyrimidine]",pest or weed control at 2 ppm,"[5]; Example 11, dose rate 2 ppm",2%
same,pest or weed control at 8 ppm,"[5]; Example 11, dose rate 8 ppm",1%
same,pest or weed control at 10 ppm,"[5]; Example 11, dose rate 10 ppm",3%
same,pest or weed control at 25 ppm,"[5]; Example 11, dose rate 25 ppm",5%
same,pest or weed control at 40 ppm,"[5]; Example 11, dose rate 40 ppm",10%
same,pest or weed control at 125 ppm,"[5]; Example 11, dose rate 125 ppm",20%
same,pest or weed control at 200 ppm,"[5]; Example 11, dose rate 200 ppm",35%
same,pest or weed control at 0.06 ppm,[5]; Example 13,8%
same,pest or weed control at 0.25 ppm,[5]; Example 13,41%
same,pest or weed control at 1 ppm,[5]; Example 13,71%
same,pest or weed control at 4 ppm,[5]; Example 13,100%
same,pest or weed control at 0.06 ppm,[5]; Example 14,8%
same,pest or weed control at 1 ppm,[5]; Example 14,71%
same,pest or weed control at 4 ppm,[5]; Example 14,100%
same,pest or weed control at 0.06 ppm,[5]; Example 15,8%
same,pest or weed control at 0.25 ppm,[5]; Example 15,49%
same,pest or weed control at 1 ppm,[5]; Example 15,71%
same,pest or weed control at 4 ppm,[5]; Example 15,100%
same,pest or weed control at 0.06 ppm,[5]; Example 19,8%
same,pest or weed control at 0.25 ppm,[5]; Example 19,49%
same,pest or weed control at 1 ppm,[5]; Example 19,71%
same,pest or weed control at 4 ppm,[5]; Example 19,100%
same,pest or weed control at 0.86 ppm,"[5]; Example 20, dose rate 0.86 ppm",8%
same,pest or weed control at 0.06 ppm,[5]; Example 21,8%
same,pest or weed control at 1 ppm,[5]; Example 22,71%
